Read-outs that look alike come from different tables or passages of the source.

In data set [1] the test system is cholesterol and triglycerides. Put plainly: Hypocholesterolemiating and hypolipemiating activity in normolipemiating rats (Table III). To be noted: rat, gastric probe, equivalent of 75 mg/kg clofibrate every 12 hours, 10 days; for Triglycerides: untreated 1.13; for Cholesterol: untreated 90.79; for Cholesterol, decrease / Triglycerides, decrease: versus untreated. Format: in vivo. The procedure:
Groups of 10 normolipemiating rats were treated for 10 days, by gastric probe, with the equivalent of 75 mg/kg of clofibrate, administered every 12 hours. After 10 days, 12 hours after the last administration, they were sacrificed and the cholesterol and triglycerides analysed (Table III).

Data set [2] in a line: Acute toxicity on the male rat, p.o. (Table I). To be noted: in vivo, po. As to the method:
The acute toxicity of compounds I to VI was determined on the male rat (Table I).

For data set [3] the following is noted: comparison value given in text, no source or test printed; cited from earlier work.

By LD50 is commonly meant the dose expected to kill half of the subjects tested. With `CC(=O)Oc1ccccc1C(=O)OCC(COC(=O)C(C)(C)Oc1ccc(Cl)cc1)OC(=O)C(C)(C)Oc1ccc(Cl)cc1` (stereo not drawn) [Compound III, 3-(acetylsalicyloxy)-1,2-di-(2-p-chlorophenoxy-2-methylpropionyloxy)-propane], in data set [1], the Triglycerides is 0.91 mm mole/l; the Cholesterol came out at 75.63 mg/100 ml; the “Cholesterol, decrease” value was found to be 17%; the “Triglycerides, decrease” value is recorded as 19%. The molecule further registered an LD50 in data set [2] above 6200 mg/kg.

Turning to `CC(=O)Oc1ccccc1C(=O)OCC(COC(=O)C(C)(C)Oc1ccc(Cl)cc1)OC(C)=O` (stereo not drawn) [Compound IV, 1-(acetylsalicyloxy)-3-(2-p-chlorophenoxy-2-methylpropionyloxy)-2-acetoxy-propane], in data set [1], the Triglycerides stood at 0.97 mm mole/l; the Cholesterol turned out to be 72.12 mg/100 ml; the “Cholesterol, decrease” value turned out to be 21%; the “Triglycerides, decrease” value turned out to be 14%. The median lethal dose (LD50) in data set [2] was above 5000 mg/kg.

As for `CC(=O)Oc1ccccc1C(=O)O` [acetylsalicylic acid], the 50% lethal dose (LD50) in data set [3] was 1750 mg/kg.

As for `CC(=O)Oc1ccccc1C(=O)OCC(COC(=O)C(C)(C)Oc1ccc(Cl)cc1)OS(=O)(=O)O` (stereo not drawn) [Compound V], in data set [1], the Triglycerides worked out at 0.89 mm mole/l; the Cholesterol is on record as 68.38 mg/100 ml; the “Cholesterol, decrease” value is on record as 25%; the “Triglycerides, decrease” value is given as 21%. Also, in data set [2], the LD50 was above 5000 mg/kg.

With `CCOC(=O)C(C)(C)Oc1ccc(Cl)cc1` [clofibrate, reference compound], the LD50 in data set [3] is 1200 mg/kg. Moreover, in data set [1], the Triglycerides is 0.83 mm mole/l; the Cholesterol came out at 65.24 mg/100 ml; the “Cholesterol, decrease” value is given as 28%; the “Triglycerides, decrease” value worked out at 27%.

Turning to `CC(=O)Oc1ccccc1C(=O)OC(COC(=O)C(C)(C)Oc1ccc(Cl)cc1)COC(=O)C(C)(C)Oc1ccc(Cl)cc1` [Compound II, 1,3-di-(2-p-chlorophenoxy-2-methylpropionyloxy)-2-(acetylsalicyloxy)-propane], in data set [1], the Triglycerides was 0.92 mm mole/l; the Cholesterol is 73.90 mg/100 ml; the “Cholesterol, decrease” value amounted to 19%; the “Triglycerides, decrease” value worked out at 19%. Further, the LD50 in data set [2] was above 7500 mg/kg.

As to `CC(=O)Oc1ccccc1C(=O)OC1C(OC(=O)c2ccccc2OC(C)=O)C(OC(=O)C(C)(C)Oc2ccc(Cl)cc2)C(OC(=O)C(C)(C)Oc2ccc(Cl)cc2)C(OC(=O)C(C)(C)Oc2ccc(Cl)cc2)C1OC(=O)C(C)(C)Oc1ccc(Cl)cc1` (stereo not drawn) [Compound I, 1,2-di-(acetylsalicyl)-3,4,5,6-tetra-(2-p-chlorophenoxy-2-methylpropionyl)-meso-inositol], in data set [1], the Triglycerides was found to be 0.96 mm mole/l; the Cholesterol is listed as 78.25 mg/100 ml; the “Cholesterol, decrease” value stood at 14%; the “Triglycerides, decrease” value worked out at 15%. Moreover, the LD50 in data set [2] was above 5000 mg/kg.

In the case of `CC(=O)Oc1ccccc1C(=O)OCCOC(=O)C(C)(C)Oc1ccc(Cl)cc1` [Compound VI, 1-(acetylsalicyloxy)-2-(2-p-chlorophenoxy-2-methylpropionyloxy)-ethane], in data set [1], the Triglycerides is reported as 0.83 mm mole/l; the Cholesterol was found to be 67.34 mg/100 ml; the “Cholesterol, decrease” value stood at 26%; the “Triglycerides, decrease” value worked out at 27%. Moreover, in data set [2], the LD50 was above 6000 mg/kg.

Source of the values: patent publication US4118583A, “Mixed esters of polyols” (Laboratories om Societe Anonyme, priority 1976, dated 1978).
